Source: US20090247519A1, “AMINO-ETHYL-AMINO-ARYL (AEAA) COMPOUNDS AND THEIR USE” (priority 2006, published 2009)

Legend:
PANC-1 cells [1] = experiment: MTT Assay (cell viability); format: cell-based, human; conditions: 5 μM, 48 hours
Experimental: The MTT (3-[4,5-dimethylthiazol-2-yl]-2,5-diphenyltetrazolium bromide) assay can be used to assess the effect of compounds on cell viability and proliferation and to determine whether a compound is cytotoxic. In living cells, the tetrazolium salt (MTT) is reduced to a coloured formazan product (1-[4,5-dimethylthiazol-2-yl]3,5-diphenylformazan), which can be quantified. The reduction of MTT is attributed to the mitochondrial function of cells.
PANC-1 cells were seeded into 96 well plates (1×10^4 cells/well in E4+10% FCS) and placed in an incubator at 37° C., 5% CO2 overnight. Cells were serum starved (E4+0.5% FCS) for 16 hours and then treated with an amino-ethyl-amino-aryl (AEAA) compound (XX-032) in full media for 1 hour prior to treatment with Neurotensin (50 nM) for a further 23 hours or 47 hours (in E4+0.5% FCS; total exposure to test compound was 24 hours or 48 hours; 37° C. 5% CO2). At the appropriate timepoint plates were removed from the incubator and the media was aspirated off. 50 μL per well of 2 mg/mL MTT solution was added and the plates were placed back into the incubator for 2.5 to 4 hours. After incubation, the plates were removed from the incubator and the MTT solution was completely aspirated off the cells. […] The plates were read in a 96 well plate reader at 562 nm (Lab Systems, Ascent Multiscan).

[2] = target: T1, PKD1 Ser916 phosphorylation in PANC-1 cells (Homo sapiens, UniProt Q15139); experiment: Western Blot 916 (Phospho-Ser916 PKD1) Assay in PDBu-stimulated PANC-1 cells; format: cell-based; conditions: 2-30 μM compound for 1 hour, then 200 nM PDBu 10 minutes, densitometry of western blot, read-out: IC50 for inhibition of PDBu-stimulated PKD1 Ser916 phosphorylation
T1 construct: endogenous in cells; host or cells: PANC-1 (ATCC CRL-1469)
T1 sequence (Q15139 1-912): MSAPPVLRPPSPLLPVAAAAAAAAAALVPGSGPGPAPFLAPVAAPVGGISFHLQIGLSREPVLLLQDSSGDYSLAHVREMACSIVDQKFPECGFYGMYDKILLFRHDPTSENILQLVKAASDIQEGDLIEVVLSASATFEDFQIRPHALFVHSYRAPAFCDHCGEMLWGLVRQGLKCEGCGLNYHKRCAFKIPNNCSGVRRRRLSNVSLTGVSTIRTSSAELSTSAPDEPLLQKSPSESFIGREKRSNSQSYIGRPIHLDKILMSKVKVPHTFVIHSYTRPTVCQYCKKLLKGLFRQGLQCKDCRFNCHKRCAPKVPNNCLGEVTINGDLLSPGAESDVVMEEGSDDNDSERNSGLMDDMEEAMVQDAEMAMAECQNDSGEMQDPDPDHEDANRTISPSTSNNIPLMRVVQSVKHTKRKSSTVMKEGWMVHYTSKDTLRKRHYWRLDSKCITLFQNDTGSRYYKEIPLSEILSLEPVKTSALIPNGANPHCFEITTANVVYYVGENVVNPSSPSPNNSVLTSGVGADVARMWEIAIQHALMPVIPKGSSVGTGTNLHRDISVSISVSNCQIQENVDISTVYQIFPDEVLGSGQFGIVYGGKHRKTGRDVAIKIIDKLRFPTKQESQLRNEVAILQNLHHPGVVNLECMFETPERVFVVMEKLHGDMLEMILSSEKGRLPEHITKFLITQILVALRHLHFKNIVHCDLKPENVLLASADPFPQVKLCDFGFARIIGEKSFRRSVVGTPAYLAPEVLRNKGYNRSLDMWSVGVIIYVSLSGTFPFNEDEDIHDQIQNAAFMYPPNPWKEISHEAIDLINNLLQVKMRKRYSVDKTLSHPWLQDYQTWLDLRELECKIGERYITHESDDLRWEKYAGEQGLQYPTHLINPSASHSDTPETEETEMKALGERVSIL
Experimental: Western Blot 916 (Phospho-Ser916 PKD1) Assay
PANC-1 (ATCC CRL-1469) cells were seeded in 6 well plates. After overnight serum starvation of cells, cells were washed twice in 1 mL serum-free media per well, then treatments were added in serum-free media.
Cells were treated with 2 μM, 5 μM, 10 μM, or 30 μM of an amino-ethyl-amino-aryl (AEAA) compound or with 3 μM GF1 (2-[1-(3-Dimethylaminopropyl)-1H-indol-3-yl]-3-(1H-indol-3-yl)-maleimide, a PKC inhibitor), for comparison purposes, for 1 hour. Then, 200 nM PDBu (phorbol, 12,13-dibutyrate) was added to the wells for 10 minutes. Two wells were used per treatment.
Cells were then scraped into lysis buffer (40 μL per well), samples were homogenised, and protein concentration determined. […]
FIG. 4 is a photographic depiction of the western blot analysis of cell lysates of PANC-1 cells which were treated with increasing amounts (2, 5, 10, 30 μM) of an amino-ethyl-amino-aryl (AEAA) compound (XX-032). Cell lysates were analysed using an anti-PKD1 Antibody (middle panel), anti-phospho-PKD1 (Ser916) Antibody (top panel) and anti-tubulin antibody (lower panel).
The shown columns represent the percentage phosphorylation as measured by densitometry of phospho-PKD1 (Ser916) levels. The results were normalised to the measured PKD1 levels and expressed as a percentage of the level of phosphorylation in the PDBu-stimulated control.

PANC-1 cells [3] = experiment: Apoptosis Assay (Caspase-Glo caspase 3/7 activity); format: cell-based, human; conditions: 5 μM, 48 hours
Experimental: PANC-1 cells were seeded into 96 well plates (1×10^4 cells/well in E4+10% FCS) and placed in an incubator at 37° C., 5% CO2 overnight. Cells were serum starved (E4+0.5% FCS) for 16 hours and then treated with an amino-ethyl-amino-aryl (AEAA) compound in full media for 1 hour prior to treatment with Neurotensin (NT; 50 nM) for a further 23 hours or 47 hours (in E4+0.5% FCS; total exposure to test compound was 24 hours or 48 hours). Cells were then assayed for Caspase3/7 activity (Caspase-Glo; Promega) according to the manufacturer's instructions.
The Caspase-Glo assay is a homogenous luminescent assay that measures caspase 3 and 7 activities. […] When added to the cell samples, these reagents result in cell lysis, followed by caspase cleavage of the substrate and generation of a luminescent signal produced by luciferase, whereby the luminescence is proportional to the amount of caspase activity present. […]
The depicted columns show the change in viability or induction of apotosis in the presence of an amino-ethyl-amino-aryl (AEAA) compound (XX-032). Cell viability was measured by the MTT assay at two different time points (24 and 48 hours) and induction of apoptosis was measured by the caspase assay at two different time points (24 and 48 hours). The data are expressed as a percentage of the level in the corresponding control.

PANC-1 cells [4] = experiment: Neurotensin Proliferation Assay (BrdU incorporation, FACS); format: cell-based, human; conditions: 5 μM compound, 50 nM neurotensin
Experimental: Neurotensin Proliferation Assay
BrdU incorporation into PANC-1 cells was used to measure DNA synthesis and thus the level of cell proliferation. Cells were seeded in 10 cm^2 cell culture dishes in (1×10^6 cells/well in E4+10% FCS). After serum starvation (24 hours), cells were treated with an amino-ethyl-amino-aryl (AEAA) compound for 1 hour before addition of neurotensin (50 nM final concentration). Cells were then incubated for a further 23 hours before addition of BrdU (10 μM) for the final 1 hour. Samples were fixed using 70% ethanol and labelled with an anti-BrdU antibody (Becton Dickinson Cat No. 347580, Lot No. 13467) followed by a rabbit polyclonal anti-mouse-FITC antibody (DakoCytomation Cat No. F0313, Lot No. 00015066) and propidium iodide. Samples were then analysed by Fluorescent Activated Cell Sorting (FACS). The measured fluorescence was directly proportional to the incorporated BrdU.
FIG. 6 is a graphic representation of the results of the neurotensin proliferation assay. The columns in the graph represent the mean percentage of BrdU incorporation into PANC-1 cells as a measure for cell proliferation. The two left-hand columns represent the controls of DMSO (basal level of non-stimulated cell proliferation) and DMSO plus 50 nM neurotensin (stimulated cell proliferation). […]

[5] = target: T2, Murine PKD1 kinase domain (Mus musculus, UniProt Q62101, R683W); experiment: PKD1 (Murine Kinase Domain) Enzyme Activity Assay (IMAP fluorescence polarisation); format: biochemical; conditions: 10 μM ATP, 10 point dose-response
T2 construct: hexahistidine (His6, pFastBac HTb leader) (N); made in house; host or cells: Sf9 insect cells, baculovirus (Bac-to-Bac HT)
T2 sequence (Q62101 with tags, fused parts or gaps R683W): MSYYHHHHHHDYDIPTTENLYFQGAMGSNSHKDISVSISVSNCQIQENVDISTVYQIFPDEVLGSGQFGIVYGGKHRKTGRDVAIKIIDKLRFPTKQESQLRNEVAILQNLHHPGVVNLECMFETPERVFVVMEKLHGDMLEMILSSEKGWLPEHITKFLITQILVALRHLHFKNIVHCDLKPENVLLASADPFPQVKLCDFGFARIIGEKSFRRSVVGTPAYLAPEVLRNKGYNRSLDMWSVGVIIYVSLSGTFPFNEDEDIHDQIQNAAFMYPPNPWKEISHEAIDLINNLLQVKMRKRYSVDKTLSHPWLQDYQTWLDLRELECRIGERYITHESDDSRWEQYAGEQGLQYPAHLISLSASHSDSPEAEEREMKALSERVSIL
Description: The DNA sequence corresponding to murine PKD1 (see FIG. 1) was inserted into pFastBAc Htb (Invitrogen, USA) at BamH1 and EcoR1 sites using standard molecular biology techniques.
The PKD1 described above was expressed as a hexahistidine tagged protein construct using a commercially available baculoviral expression system that induces protein production in insect cell culture (Bac-to-Bac® HT Baculovirus Expression System, Invitrogen). Protein was typically expressed by inoculating 1 L of sf9 cells with a genetically modified baculovirus containing the gene for the kinase domain of PKD1. Sf9 cells were obtained from ICR Ltd.
Purification of PKD1 was achieved by standard chromatographic procedures. Capture from crude centrifuged lysed cell supernatant was achieved using metal affinity chromatography (GE Healthcare Life Sciences, HiTrap Chelating chromatography column), and fractions showing PKD1 (as assessed by gel electrophoresis and western blot) were further purified by a single purification step. This was a performed using a mono Q anion exchange chromatography system (GE Healthcare Life Sciences, HiTrap HP Q column). […] This protocol describes the method for screening compounds as inhibitors of Protein Kinase D activity in a 384 well microplate format fluorescence polarisation IMAP assay performed using the Biomek FX. […]

Row | Compound | decrease in cell viability (MTT) (PANC-1 cells [1]) | IC50 [2] | increase in caspase 3/7 activity (PANC-1 cells [3]) | Neurotensin-stimulated PANC-1 proliferation (BrdU incorporation) (PANC-1 cells [4]) | IC50 [5]
1 | CC[C@@H](N)CNc1nc(-c2cc(Cl)ccc2O)nc2ccccc12 [XX-032, 2-[4-((R)-2-Amino-butylamino)-quinazolin-2-yl]-4-chloro-phenol] | 2 fold | ~4000 nM | 5 fold | inhibited to basal levels | 
2 | NCCNc1nc(-c2cc(Cl)ccc2O)nc2ccccc12 [XX-097, 2-[4-(2-Amino-ethylamino)-quinazolin-2-yl]-4-chloro-phenol] |  |  |  |  | 16 nM
